In data set [1] the test system is peptidases/proteinases. To be noted: due to isopeptide-bond linkages; cited from earlier work. The source says:
In this context, a bacterium-origin polycationic polymer, ε-PαL (1) (Fig. 1a), has garnered increasing interest in recent years as an alternative to canonical cationic CPPs. […] However, the cati ... || Practical intracellular delivery of biological macromolecules (biopharmaceuticals) would dramatically transform therapeutic approaches and foster experimental breakthroughs because numerous potential drug targets (cytokines, growth factors, and signal transduction proteins) are in the cell interior[44]. CPPs are among the most promising strategies, and CPP-driven technology currently revolves around natural and synthetic eupeptides. Poly-L/D-arginine[13]–[15], poly-L-histidine[45], and poly-L/D-lysine[46], which were chemically or genetically produced, have been used as CPPs. To enable the del ...

The test system of data set [2] is HeLa cells. To be noted: cited from earlier work. The source says:
page 5: Response to reviewers … Reviewer #1: Thank you so much for your valuable comments concerning our original manuscript. Your comment #1: The manuscript is well prepared and written except for the cytotoxicity of these polycationic isopeptides. […] However, we did n ...

For data set [3] the following is noted: cited from earlier work. The source says: (§1) In this context, a bacterium-origin polycationic polymer, ε-PαL (1) (Fig. 1a), has garnered increasing interest in recent years as an alternative to canonical cationic CPPs. […] However, the cati ...
Data set [4] deals with mammalian cells. To be noted: cited from earlier work.
Excerpt: as §1

The conditions of data set [5]: cited from earlier work. An excerpt: To address the growing worldwide demand for CPPs, structurally and functionally distinct CPPs are required to circumvent the canonical CPP drawbacks such as cytotoxicity. This study, therefore, focused on the cytotoxicities of ε-PαL (1) against mammalian cells, while the nontoxicity of 1 in vivo has also been reported so that ε-PαL is used as a natural food preservative in several countries[1],[42]. However, the in vitro cytotoxicity of 1 in other cell lines has remained unclear. We therefore performed the MTT cell viability assay with 1 in K562, HepG2, and HEK293T cells in addition to HeLa ce ...
The source holds these as a separate data set.

Data set [6] has as its system Cre/loxP recombination in HEK293T cells. The data set is described as follows: Cre/loxP recombination by intracellularly delivered Cre (reporter plasmid pmKO_loxP_mAG). The class given is cell-based, human. To be noted: HEK293T transfected with pmKO_loxP_mAG; 50 μM, 60 min, 37°C, then 24 h culture; microscopy; mean ± s.d. (n = 3). An excerpt: The synthetic DNA fragment carrying two loxP sequences, one TGA stop codon, and the ampicillin resistance gene (Amp^r gene) (Supplementary Table 30) was ligated with pmKO1-MC1 digested by Bam HI and Eco RI. The resulting plasmid, pmKO_loxP, was digested with Eco RI and Hind III and ligated with the mAG gene fragment amplified by the PCR primers (pmKO1_mAG-F and pmKO1_mAG-R, Supplementary Table 29) to yield the Cre activity reporter plasmid (pmKO_loxP_mAG).
HEK293T cells were transfected with the plasmid pmKO_loxP_mAG using FuGENE Transfection (Promega) according to the manufacturer’s specifications. The cells were washed with DMEM medium and then treated with 50 µM of ε-PαL-Cre (16) at 37 °C for 60 min. The cells were then washed with PBS, followed by 100 µg ml^−1 heparin in PBS, and then two more times with PBS. Finally, fresh DMEM containing 10% FBS was added and incubated at 37 °C for 24 h to express a fluorescent protein. The live-cell imaging was captured by fluorescence microscopy (Leica DMi8).

As to ε-oligo-L-β-lysine [Compound 2], the Proteolytic resistance entry in data set [1] was “resistant to peptidases/proteinases”. Also, the “Cytotoxicity in HeLa cells” value in data set [2] is “no cytotoxicity”.
ε-poly-L-α-lysine [Compound 1]: the Antimicrobial activities entry in data set [3] is listed as “potent”. In data set [4], the Cytotoxicity result is “nondetectable levels”. Further, the Proteolytic resistance result in data set [1] is reported as “proteolytic resistance”. The Toxicity in vivo entry in data set [5] is “nontoxicity”.

B1: Cre: recombinant Cre recombinase (38 kDa), unconjugated control (protein, UniProt P06956 1-343, looked up)
Recombinase cre: MSNLLTVHQNLPALPVDATSDEVRKNLMDMFRDRQAFSEHTWKMLLSVCRSWAAWCKLNNRKWFPAEPEDVRDYLLYLQARGLAVKTIQQHLGQLNMLHRRSGLPRPSDSNAVSLVMRRIRKENVDAGERAKQALAFERTDFDQVRSLMENSDRCQDIRNLAFLGIAYNTLLRIAEIARIRVKDISRTDGGRMLIHIGRTKTLVSTAGVEKALSLGVTKLVERWISVSGVADDPNNYLFCRVRKNGVAAPSATSQLSTRALEGIFEATHRLIYGAKDDSGQRYLAWSGHSARVGAARDMARAGVSIPEIMQAGGWTNVNIVMNYIRNLDSETGAMVRLLEDGD
B1: in data set [6], the “Gene recombination ratio (green cells)” value is on record as 6.8% ± 0.1%.

B2: 16: Cre recombinase (38 kDa) conjugated with 8 (conjugate, UniProt P06956 1-343, looked up)
Recombinase cre: B1 Recombinase cre
modifications: conjugated to ε-poly-α-lysine polymer 8
Regarding B2, in data set [6], the “Gene recombination ratio (green cells)” value is listed as 65.6% ± 2.7%.

Values taken from PMC9606270, “First direct evidence for direct cell-membrane penetrations of polycationic homopoly(amino acid)s produced by bacteria” (Communications Biology, 2022).
